# Experimental data as given in patent US7432225B2, “Selective herbicides based on substituted cyclic keto-enols and safeners” (Bayer CropScience AG, priority 2001, dated 2008).
# What was measured:
# Winter barley = experiment: Post-emergence test, degree of damage to crop plants; type: in vivo; conditions: rated about three weeks after application
# Method: (§1) The active compound or safener components are in each case dissolved in a few ml (generally 2-3 ml) of solvent (generally acetone or N,N-dimethyl-formamide), and the solutions are combined and then—if appropriate after addition of an emulsifier—diluted with water to the desired concentration. In general, an aqueous spray liquor was prepared using 0.1% of the additive Renex-36.
# (§2) The test plants are grown under controlled conditions (temperature, light, atmospheric humidity) in a greenhouse. The test plants are sprayed when they have reached a height of 5-15 cm. The concentration of the spray liquor is chosen such that the particular amounts of active compound desired are applied in 500 l of water/ha.
# (§3) After spraying, the pots with the test plants are kept in a greenhouse chamber under controlled conditions (temperature, light, atmospheric humidity) until the test has ended. About three weeks after the application, the degree of damage to the crop plants is rated in % damage in comparison to the development of the untreated control.
# (§4) The figures denote: • 0% no damage (like untreated control) • 100% total destruction/damage
# Winter wheat = experiment: as above; type: in vivo; conditions: rated about three weeks after application
# Method: as §1, §2, §3, §4
# [1] = application rate 125 g of ai/ha
# [2] = application rate 250 g of ai/ha
# [3] = safener alone, application rate 50 g of ai/ha
SMILES,Winter wheat observed (% damage) (Winter wheat; [1]),Winter wheat observed (% damage) (Winter wheat; [2]),Winter barley observed (% damage) (Winter barley; application rate 60 g of ai/ha),Winter barley observed (% damage) (Winter barley; [1]),Winter barley observed (% damage) (Winter barley; [2]),Winter wheat observed (% damage) (Winter wheat; [3]),Winter barley observed (% damage) (Winter barley; [3]),also measured
CCCC1(C)NC(=O)C(c2c(C)cc(C)cc2C)=C1O (stereo not drawn) [Example I-1-a-1],,,,,,,,Winter barley observed (% damage) (Winter barley; application rate 110 g of ai/ha): 10%; Winter barley observed (% damage) (Winter barley; application rate 220 g of ai/ha): 25%; Winter barley observed (% damage) (Winter barley; application rate 440 g of ai/ha): 70%
CCc1cc(Br)cc(C)c1C1=C(O)C2(CCC(C)CC2)NC1=O (stereo not drawn) [Example I-1-a-2],10%,40%,5%,20%,65%,,,
CCc1cc(Br)cc(CC)c1C1=C(O)C(C)(C(C)C)NC1=O (stereo not drawn) [Example I-1-a-3],10%,15%,,,40%,,,
Cc1cc(-c2ccc(Cl)cc2)cc(C)c1C1=C(O)C2(CCOCC2)NC1=O [Example I-1-a-4],,,5%,35%,35%,,,
"CCOC(=O)C1=NN(c2ccc(Cl)cc2Cl)C(C)(C(=O)OCC)C1 (stereo not drawn) [Mefenpyr-diethyl, diethyl 1-(2,4-dichloro-phenyl)-4,5-dihydro-5-methyl-1H-pyrazole-3,5-dicarboxylate, reference compound]",,,,,,0%,0%,
"CCCCCC(C)OC(=O)COc1ccc(Cl)c2cccnc12 (stereo not drawn) [cloquintocet-mexyl, 1-methyl-hexyl 5-chloro-quinolin-8-oxy-acetate, reference compound]",,,,,,0%,0%,
